Results taken from ChEMBL document CHEMBL1833893, “Synthesis and anticonvulsant activity of new 1-[2-oxo-2-(4-phenylpiperazin-1-yl)ethyl]pyrrolidine-2,5-diones” (Bioorg Med Chem Lett, 2011).
Activity calls are given as the source filed them. No cut-off for these calls is given here.

Legend:
Mus musculus [1] = test: Anticonvulsant activity in albino CF1 mouse assessed as protection against subcutaneous pentylenetetrazole-induced seizures at 300 mg/kg, ip after 4 hrs; format: functional, organism-based; parameters: dose 300 mg/kg
Mus musculus [2] = test: Neurotoxicity in albino CF1 mouse assessed as motor impairment at 300 mg/kg, ip after 4 hrs by rotarod test; format: toxicity, organism-based; parameters: dose 300 mg/kg, route intraperitoneal; conditions: in vivo
Mus musculus [3] = test: Neurotoxicity in albino CF1 mouse assessed as motor impairment at 300 mg/kg, ip after 0.5 hrs by rotarod test; format: toxicity, organism-based; parameters: dose 300 mg/kg, route intraperitoneal; conditions: in vivo
Mus musculus [4] = test: Anticonvulsant activity in ip dosed albino CF1 mouse assessed as protection against maximal electroshock-induced seizures after 0.5 hrs; format: functional; conditions: read-out: MED
Mus musculus [5] = test: Anticonvulsant activity in albino CF1 mouse assessed as protection against maximal electroshock-induced seizures at 300 mg/kg, ip after 4 hrs; format: functional, organism-based; parameters: dose 300 mg/kg
Mus musculus [6] = test: Anticonvulsant activity in albino CF1 mouse assessed as protection against subcutaneous pentylenetetrazole-induced seizures at 300 mg/kg, ip after 0.5 hrs; format: functional, organism-based; parameters: dose 300 mg/kg
Mus musculus [7] = test: Anticonvulsant activity in albino CF1 mouse assessed as protection against electrically-induced seizure at 100 mg/kg, ip after 0.25 hrs by 6Hz psychomotor seizure test; format: functional; conditions: route intraperitoneal
Mus musculus [8] = test: Anticonvulsant activity in albino CF1 mouse assessed as protection against electrically-induced seizure at 100 mg/kg, ip after 0.5 hrs by 6Hz psychomotor seizure test; format: functional; conditions: route intraperitoneal
Rattus norvegicus [9] = test: Anticonvulsant activity in Sprague-Dawley rat assessed as protection against maximal electroshock-induced seizures at 30 mg/kg, po after 2 hrs; format: functional
Mus musculus [10] = test: Neurotoxicity in ip dosed albino CF1 mouse assessed as minimum dose required to cause motor impairment after 0.5 hrs by rotarod test; format: toxicity, organism-based; conditions: in vivo
Rattus norvegicus [11] = test: Anticonvulsant activity in Sprague-Dawley rat assessed as protection against maximal electroshock-induced seizures at 30 mg/kg, po after 0.5 hrs; format: functional
Rattus norvegicus [12] = test: Anticonvulsant activity in Sprague-Dawley rat assessed as protection against maximal electroshock-induced seizures at 30 mg/kg, po after 1 hr; format: functional
Mus musculus [13] = test: Anticonvulsant activity in albino CF1 mouse assessed as protection against electrically-induced seizure at 100 mg/kg, ip after 2 hrs by 6Hz psychomotor seizure test; format: functional
Rattus norvegicus [14] = test: Anticonvulsant activity in Sprague-Dawley rat assessed as protection against maximal electroshock-induced seizures at 30 mg/kg, po after 4 hrs; format: functional
Mus musculus [15] = test: Anticonvulsant activity in ip dosed albino CF1 mouse assessed as protection against subcutaneous pentylenetetrazole-induced seizures after 0.5 hrs; format: functional; conditions: albino CF1, 0.5 h, read-out: MED
Rattus norvegicus [16] = test: Anticonvulsant activity in Sprague-Dawley rat assessed as protection against maximal electroshock-induced seizures at 30 mg/kg, po after 0.25 hrs; format: functional
Mus musculus [17] = test: Anticonvulsant activity in albino CF1 mouse assessed as protection against electrically-induced seizure at 100 mg/kg, ip after 4 hrs by 6Hz psychomotor seizure test; format: functional
Mus musculus [18] = test: Anticonvulsant activity in ip dosed albino CF1 mouse assessed as protection against maximal electroshock-induced seizures after 4 hrs; format: functional; conditions: read-out: MED
Mus musculus [19] = test: Anticonvulsant activity in albino CF1 mouse assessed as protection against electrically-induced seizure at 100 mg/kg, ip after 1 hr by 6Hz psychomotor seizure test; format: functional
Mus musculus [20] = test: Anticonvulsant activity in albino CF1 mouse assessed as protection against maximal electroshock-induced seizures at 300 mg/kg, ip after 0.5 hrs; format: functional, organism-based; parameters: dose 300 mg/kg
Mus musculus [21] = test: Neurotoxicity in ip dosed albino CF1 mouse assessed as minimum dose required to cause motor impairment after 4 hrs by rotarod test; format: toxicity, organism-based; conditions: in vivo

| SMILES | Activity (Mus musculus [1]) | Activity (Mus musculus [2]) | Activity (Mus musculus [3]) | minimal effective dose (Mus musculus [4]) | Activity (Mus musculus [5]) | Activity (Mus musculus [6]) | Activity (Mus musculus [7]) | Activity (Mus musculus [8]) | MTC (Mus musculus [10]) | Activity (Rattus norvegicus [11]) | Activity (Rattus norvegicus [12]) | Activity (Rattus norvegicus [14]) | minimal effective dose (Mus musculus [15]) | Activity (Rattus norvegicus [16]) | Activity (Mus musculus [17]) | minimal effective dose (Mus musculus [18]) | Activity (Mus musculus [19]; route intraperitoneal) | other results |
| --- | --- | --- | --- | --- | --- | --- | --- | --- | --- | --- | --- | --- | --- | --- | --- | --- | --- | --- |
| CC1(C)CC(=O)N(CC(=O)N2CCN(c3ccccc3F)CC2)C1=O | inactive | Non-toxic | Non-toxic | 300 mg/kg | inactive | inactive | – | – | – | – | – | – | – | – | – | – | – | – |
| CC1CC(=O)N(CC(=O)N2CCN(c3ccccc3Cl)CC2)C1=O (centres undefined) | inactive | Non-toxic | – | 300 mg/kg | inactive | – | 100% | 100% | 300 mg/kg | inactive | inactive | inactive | 300 mg/kg | 75% | inactive | – | – | Activity (Rattus norvegicus [9]): inactive; Activity (Mus musculus [13]): inactive |
| O=C(CN1C(=O)CCC1=O)N1CCN(c2ccc(F)cc2)CC1 | inactive | Non-toxic | Non-toxic | 300 mg/kg | – | inactive | – | – | – | – | – | – | – | – | – | 300 mg/kg | – | – |
| CC1CC(=O)N(CC(=O)N2CCN(c3ccc(F)cc3)CC2)C1=O (centres undefined) | inactive | Non-toxic | Non-toxic | 300 mg/kg | – | inactive | – | 75% | – | – | – | – | – | – | inactive | 100 mg/kg | 75% | – |
| CCC1(CC)CC(=O)N(CC(=O)N2CCN(c3ccc(Cl)cc3)CC2)C1=O | inactive | Non-toxic | Non-toxic | – | – | inactive | – | – | – | – | – | – | – | – | – | 300 mg/kg | – | Activity (Mus musculus [20]): inactive |
| CC1(C)CC(=O)N(CC(=O)N2CCN(c3ccc(Cl)cc3)CC2)C1=O | inactive | Non-toxic | – | 100 mg/kg | – | – | 100% | 100% | 300 mg/kg | inactive | inactive | 100% | 300 mg/kg | inactive | – | 100 mg/kg | 100% | – |
| O=C(CN1C(=O)CCC1=O)N1CCN(c2ccccc2Cl)CC1 | inactive | Non-toxic | – | 100 mg/kg | inactive | – | 75% | – | 300 mg/kg | inactive | inactive | inactive | 300 mg/kg | inactive | inactive | – | – | Activity (Rattus norvegicus [9]): inactive; Activity (Mus musculus [19]): inactive; Activity (Mus musculus [13]): inactive |
| CC1CC(=O)N(CC(=O)N2CCN(c3cccc(C(F)(F)F)c3)CC2)C1=O (centres undefined) | inactive | – | – | 100 mg/kg | – | – | 100% | 100% | 300 mg/kg | inactive | – | – | 300 mg/kg | inactive | inactive | 100 mg/kg | 100% | MTC (Mus musculus [21]): 300 mg/kg; Activity (Mus musculus [13]; route intraperitoneal): 75% |
| O=C(CN1C(=O)CCC1=O)N1CCN(c2ccccc2F)CC1 | inactive | Non-toxic | – | 300 mg/kg | – | – | – | – | 300 mg/kg | – | – | – | 300 mg/kg | – | – | – | – | – |
| CCC1(CC)CC(=O)N(CC(=O)N2CCN(c3ccccc3)CC2)C1=O | inactive | Non-toxic | Non-toxic | – | inactive | inactive | – | – | – | – | – | – | – | – | – | – | – | Activity (Mus musculus [20]): inactive |
